Assay results taken from patent publication US10226453B2, “3-(1H-indol-2-yl)-1H-pyrazolo[4,3-B]pyridines and therapeutic uses thereof” (Samumed, LLC, priority 2015, dated 2019).

What was measured:
Format in all cases: cell-based
[1] = tested on: Wnt activity (Sp5-Luc reporter, SW480 colon carcinoma cells); experiment: Wnt activity screening assay: Sp5-Luc reporter gene in SW480 colon carcinoma cells; settings: Homo sapiens, overnight incubation, 10-point curve from 10 μM
Description: The screening assay for Wnt activity is described as follows. Reporter cell lines can be generated by stably transducing cancer cell lines (e.g., colon cancer) or primary cells (e.g., IEC-6 intestinal cells) with a lentiviral construct that includes a Wnt-responsive promoter driving expression of the firefly luciferase gene.
SW480 colon carcinoma cells were transduced with a lentiviral vector expressing luciferase with a human Sp5 promoter consisting of a sequence of eight TCF/LEF binding sites. SW480 cells stably expressing the Sp5-Luc reporter gene and a hygromycin resistance gene were selected by treatment with 150 μg/mL of hygromycin for 7 days. These stably transduced SW480 cells were expanded in cell culture and used for all further screening activities. Each compound was dissolved in DMSO as a 10 mM stock and used to prepare compound source plates. Serial dilution (1:3, 10-point dose-response curves starting from 10 μM) and compound transfer was performed using the ECHO 550 (Labcyte, Sunnyvale, Calif.) into 384-well white solid bottom assay plates (Greiner Bio-One) with appropriate DMSO backfill for a final DMSO concentration of 0.1%. For Sp5-Luc reporter gene assays, the cells were plated at 4,000 cells/well in 384-well plates with medium containing 1% fetal bovine serum and incubated overnight at 37° C. and 5% CO2. Following incubation, 20 μl of BrightGlo luminescence reagent (Promega) was added to each well of the 384-well assay plates. The plates were placed on an orbital shaker for 2 min and then luminescence was quantified using the Envision (Perkin Elmer) plate reader. Readings were normalized to DMSO only treated cells, and normalized activities were utilized for EC50 calculations using the dose-response log (inhibitor) vs. response-variable slope (four parameters) nonlinear regression feature available in GraphPad Prism 5.0 (or Dotmatics). For EC50 of >10 μM, the percent inhibition at 10 μM is provided.

[2] = tested on: SW480 colon cancer cells; experiment: Cell viability assay (CellTiter-Blue), SW480 colon cancer cells; settings: Homo sapiens, 96 h, four days, CellTiter-Blue
Procedure: Representative compounds were screened using the following assay procedure to assess the effect on cell viability as described below.
Each compound was dissolved in DMSO as a 10 mM stock and used to prepare compound source plates. Serial dilution (1:3, 8-point dose-response curves from 10 μM to 0.0045 μM) and compound transfer was performed using the ECHO 550 (Labcyte, Sunnyvale, Calif.) into 96-well clear bottom, black-walled plates (Corning—Costar).
Approximately 2×10^3 SW480 colon cancer cells were seeded into each well and allowed to incubate in the presence or absence of compound for four days at 37° C./5% CO2. Eight replicates of DMSO-treated cells served as controls and cells treated with compound were performed in duplicate.
After incubation, 20 μL of CellTiter-Blue (Promega) was added to each well allowed to incubate for approximately 3 hours. This reagent was a buffered solution which contains resazurin, metabolically active cells were able to reduce rezarurin (blue) into resorufin (pink) which was highly fluorescent. This measured fluorescence was used as a readout for cell viability.
After incubation, the plates were read at Ex 560 nm Em 590 nm (Cytation 3, BioTek). Dose-response curves were generated and EC50 concentration values were calculated using non-linear regression curve fit in the GraphPad Prism (San Diego, Calif.) or Dotmatics' Studies Software (Bishops Stortford, UK). For EC50 of >10 μM, the percent inhibition at 10 μM is provided.

[3] = tested on: primary human fibroblasts derived from IPF patients (LL29 cells) treated with TGF-β1; experiment: Inhibition of the fibrotic process: αSMA staining in TGF-β1 treated primary human fibroblasts from IPF patients (LL29 cells); settings: Fibroblast, 96 h, TGF-β1 20 ng/mL, 4 days, % αSMA positive cells
Description: Representative compounds were screened using primary human fibroblasts (derived from IPF patients) treated with TGF-β1 to determine their ability to inhibit the fibrotic process.
Primary human fibroblasts derived from IPF patients (LL29 cells) [^1Xiaoqiu Liu, et. al., “Fibrotic Lung Fibroblasts Show Blunted Inhibition by cAMP Due to Deficient cAMP Response Element-Binding Protein Phosphorylation”, Journal of Pharmacology and Experimental Therapeutics (2005), 315(2), 678-687; ^2Watts, K. L., et. al., “RhoA signaling modulates cyclin D1 expression in human lung fibroblasts; implications for idiopathic pulmonary fibrosis”, Respiratory Research (2006), 7(1), 88] were obtained from American Type Culture Collection (ATCC) and expanded in F12 medium supplemented with 15% Fetal Bovine Serum and Penicillin/Streptomycin.
Each compound was dissolved in DMSO as a 10 mM stock and used to prepare compound source plates. Serial dilution (1:2, 11-point dose-response curves from 10 μM to 1.87 nM) and compound transfer was performed using the ECHO 550 (Labcyte, Sunnyvale, Calif.) into 384-well clear bottom assay plates (Greiner Bio-One) with appropriate DMSO backfill for a final DMSO concentration of 0.1%. LL29 cells are plated at 1,500 cells/well in 80 μL/well F12 medium supplemented with 1% Fetal Bovine Serum. One hour after addition of the cells, TGF-β1 (Peprotech; 20 ng/mL) was added to the plates to induce fibrosis (ref. 1 and 2 above). Wells treated with TGF-β1 and containing DMSO were used as controls. Cells were incubated at 37° C. and 5% CO2 for 4 days. Following incubation for 4 days, SYTOX green nucleic acid stain (Life Technologies [Thermo Fisher Scientific]) was added to the wells at a final concentration of 1 μM and incubated at room temperature for 30 min. Cells were then fixed using 4% formaldehyde (Electron Microscopy Sciences), washed 3 times with PBS followed by blocking and permeabilization using 3% Bovine Serum Albumin (BSA; Sigma) and 0.3% Triton X-100 (Sigma) in PBS. Cells were then stained with antibody specific to α-smooth muscle actin (αSMA; Abcam) (ref. 1 and 2 above) in 3% Bovine Serum Albumin (BSA; Sigma) and 0.3% Triton X-100 (Sigma) in PBS, and incubated overnight at 4° C. Cells were then washed 3 times with PBS, followed by incubation with Alexa Flor-647 conjugated secondary antibody (Life Technologies [Thermo Fisher Scientific]) and DAPI at room temperature for 1 hour. Cells were then washed 3 times with PBS and plates were sealed for imaging. αSMA staining was imaged by excitation at 630 nm and emission at 665 nm and quantified using the Compartmental Analysis program on the CellInsight CX5 (Thermo Scientific). Dead or apoptotic cells were excluded from analysis based on positive SYTOX green staining. % of total cells positive for αSMA were counted in each well and normalized to the average of 11 wells treated with TGF-β1 on the same plate using Dotmatics' Studies Software. The normalized averages (fold change over untreated) of 3 replicate wells for each compound concentration were used to create dose-responses curves and EC50 values were calculated using non-linear regression curve fit in the Dotmatics' Studies Software. For EC50 of >10 μM, the percent inhibition at 10 μM is provided.

[4] = tested on: IL-6 (THP-1 cells); experiment: IL-6 inhibition in LPS-stimulated THP-1 human monocyte cells (HTRF); settings: LPS 500 ng/mL, 22 hours, IL6 HTRF
Procedure: Human monocyte cell line (THP-1 cells; Catalog # TIB-202, ATCC, Manassas, Va.) were cultured in Roswell Park Memorial Institute (RPMI) 1640 Medium (Catalog #21870-100, Buffalo, N.Y.) with 1% L-glutamine, 1% HEPES, 1% Sodium Pyruvate, 2% Sodium Bicarbonate supplemented with 100 units/mL penicillin, 50 μg/mL streptomycin, 2-mercaptoethanol (0.05 mM) [basal medium] and 10% fetal bovine serum (Catalog #16140089, Life Technologies, Carlsbad, Calif.) at 37° C. and 5% CO2.
THP-1 cells were cultured in basal media with 1% FBS for 24 hours before the start of the assay. Each compound was dissolved in DMSO as a 10 mM stock and used to prepare compound source plates. Serial dilution (1:3, 10-point dose-response curves starting from 10 μM) and compound transfer was performed using the ECHO 550 (Labcyte, Sunnyvale, Calif.) into 384-well white low volume assay plates (Greiner Bio-One) with appropriate DMSO backfill for a final DMSO concentration of 0.1%. THP-1 cells were plated at 5000 cells/well in the 384-well plates and incubated at 37° C. for 2 h. 500 ng/mL of LPS was added after 2 hours and cells were incubated for another 22 hours at 37° C. Plates were spun in a centrifuge for 1 minute at […] and a mixture of anti-IL6 XL665, and anti-IL6 Cryptate diluted in reconstitution buffer (Cisbio Inc.) was added to each well. Following incubation for 3 hrs at room temperature, Homogeneous Time-Resolved Fluorescence (HTRF) was measured using the Envision (Perkin Elmer) at 665 nm and […]. The ratio of fluorescence at 665 nm to 620 nm was used as a readout for IL6 quantification. All samples were processed in duplicate. Readings were normalized to DMSO treated cells and normalized activities were utilized for EC50 calculations using the dose-response log (inhibitor) vs. response-variable slope (four parameters) nonlinear regression feature available in GraphPad Prism 5.0 (or Dotmatics). For EC50 of >10 μM, the percent inhibition at 10 μM is provided.

SMILES	EC50 [1]	EC50 [2]	EC50 [4]	EC50 [3]
Fc1cccc(-c2cccc3[nH]c(-c4n[nH]c5ccc(-c6cccnc6)nc45)cc23)c1 [Compound 4, 3-(4-(3-Fluorophenyl)-1H-indol-2-yl)-5-(pyridin-3-yl)-1H-pyrazolo[4,3-b] pyridine]	0.209 µM	9.66 µM	0.439 µM	0.974 µM
O=C(Nc1cncc(-c2ccc3[nH]nc(-c4cc5c(-c6cccc(F)c6)cccc5[nH]4)c3n2)c1)C1CCCCC1 [Compound 23, N-(5-(3-(4-(3-Fluorophenyl)-1H-indol-2-yl)-1H-pyrazolo[4,3-b]pyridin-5-yl)pyridin-3-yl)cyclohexanecarboxamide]	1.63 µM	6.57 µM	1.01 µM	1.28 µM
CN(C)Cc1cncc(-c2ccc3[nH]nc(-c4cc5c(-c6cccs6)cccc5[nH]4)c3n2)c1 [Compound 349, N,N-Dimethyl-1-(5-(3-(4-(thiophen-2-yl)-1H-indol-2-yl)-1H-pyrazolo[4,3-b]pyridin-5-yl)pyridin-3-yl)methanamine]	8.28 µM	2.84 µM	0.137 µM	1.27 µM
CC(C)Nc1cncc(-c2ccc3[nH]nc(-c4cc5ncccc5[nH]4)c3n2)c1 [Compound 516, 5-(3-(1H-Pyrrolo[3,2-b]pyridin-2-yl)-1H-pyrazolo[4,3-b]pyridin-5-yl)-N-isopropylpyridin-3-amine]	0.061 µM	0.145 µM	0.037 µM	1.97 µM

Continued by falling EC50 [1], values first:

EC50 [1]	EC50 [2]	EC50 [4]	SMILES	EC50 [3]
3.69 µM	8.06 µM	0.017 µM	Cc1ccncc1-c1ccc2[nH]nc(-c3cc4ccccc4[nH]3)c2n1 [Compound 257, 3-(1H-Indol-2-yl)-5-(4-methylpyridin-3-yl)-1H-pyrazolo[4,3-b]pyridine]	4.64 µM
1.18 µM	5.59 µM	0.031 µM	c1cc(N2CCCCC2)c2cc(-c3n[nH]c4ccc(-c5cncnc5)nc34)[nH]c2c1 [Compound 195, 3-(4-(Piperidin-1-yl)-1H-indol-2-yl)-5-(pyrimidin-5-yl)-1H-pyrazolo[4,3-b] pyridine]	1.28 µM
0.433 µM	1.19 µM	0.473 µM	CS(=O)(=O)NCc1cc(F)cc(-c2cccc3[nH]c(-c4n[nH]c5ccc(-c6cncc(OCc7ccccc7)c6)nc45)cc23)c1 [Compound 802, N-(3-(2-(5-(5-(Benzyloxy)pyridin-3-yl)-1H-pyrazolo[4,3-b]pyridin-3-yl)-1H-indol-4-yl)-5-fluorobenzyl)methanesulfonamide]	0.276 µM
0.253 µM	2.15 µM	0.126 µM	c1cncc(-c2ccc3[nH]nc(-c4cc5c(N6CCCCC6)cccc5[nH]4)c3n2)c1 [Compound 172, 3-(4-(Piperidin-1-yl)-1H-indol-2-yl)-5-(pyridin-3-yl)-1H-pyrazolo[4,3-b] pyridine]	0.295 µM
